Earlier results, collected in patent publication US8815898B2, “6,7-disubstituted-sioquinoline derivatives and their use” (Montisera Ltd, priority 2010, dated 2014).

c1ccc2c(c1)CCNC2 [TIQ]
hydroxylated (C4 of the isoquinoline backbone) derivative in the urine (most abundant metabolite in urine, 4-hydroxy derivative of the parent): 2.7% | excreted in urine unchanged (share excreted in urine unchanged): 76% | exit the brain unchanged (share of compound leaving the brain unchanged): 90.4%
